Source: article PMC10504751, “Chalcone/1,3,4-Oxadiazole/Benzimidazole hybrids as novel anti-proliferative agents inducing apoptosis and inhibiting EGFR & BRAFV^600E” (BMC Chemistry, 2023)

Tests used:
Type in all cases: cell-based
SR = test: NCI one-dose SRB anti-proliferative screen; details: Homo sapiens; SR, Leukemia; NCI one dose; read-out: Cell growth inhibition %
Procedure: (§1) The twenty-four synthesized compounds were submitted to the National Cancer Institute (NCI), USA. Eighteen hybrids 7a-h, 7k-r, 7u, and 7v were selected by NCI for one-dose assessment of their anti-proliferative activities at 10 µM dose by Sulforhodamine B colorimetric assay. The assessment was performed in 60 cell lines derived from nine tumor subpanels, comprising lung, leukemia, melanoma, colon, renal, CNS, prostate, breast, and ovarian cancer cell lines.
(§2) The methodology of the NCI anti-proliferative screening has been described in details elsewhere (http://www.dtp.nci.nih.gov).

SN12C = test: NCI one-dose SRB anti-proliferative screen; details: Homo sapiens, SN 12C, Renal cancer, NCI one dose, read-out: Cell growth inhibition %
Procedure: as §1, §2

A498 = test: NCI one-dose SRB anti-proliferative screen; details: Homo sapiens; A498, Renal cancer; NCI one dose; read-out: Cell growth inhibition %
Procedure: as §1, §2

U251 = test: NCI one-dose SRB anti-proliferative screen; details: Homo sapiens, U-251; U251, CNS Cancer; NCI one dose; read-out: Cell growth inhibition %
Procedure: as §1, §2

RPMI-8226 = test: NCI one-dose SRB anti-proliferative screen; details: Homo sapiens; RPMI-8226, Leukemia; NCI one dose; read-out: Cell growth inhibition %
Procedure: as §1, §2

OVCAR-3 = test: NCI one-dose SRB anti-proliferative screen; details: Homo sapiens; OVCAR-3, Ovarian Cancer; NCI one dose; read-out: Cell growth inhibition %
Procedure: as §1, §2

ACHN = test: NCI one-dose SRB anti-proliferative screen; details: Homo sapiens; ACHN, Renal cancer; NCI one dose; read-out: Cell growth inhibition %
Procedure: as §1, §2

CAKI-1 = test: NCI one-dose SRB anti-proliferative screen; details: Homo sapiens; CAKI-1, Renal cancer; NCI one dose; read-out: Cell growth inhibition %
Procedure: as §1, §2

MDA-MB-435 = test: NCI one-dose SRB anti-proliferative screen; details: Homo sapiens; MDA-MB-435, Melanoma; NCI one dose; read-out: Cell growth inhibition %
Procedure: as §1, §2

SK-MEL-2 = test: NCI one-dose SRB anti-proliferative screen; details: Homo sapiens; SK-MEL-2, Melanoma; NCI one dose; read-out: Cell growth inhibition %
Procedure: as §1, §2

MDA-MB-468 = test: NCI one-dose SRB anti-proliferative screen; details: Homo sapiens; MDA-MB-468, Breast cancer; NCI one dose; read-out: Cell growth inhibition %
Procedure: as §1, §2

UACC-62 = test: NCI one-dose SRB anti-proliferative screen; details: Homo sapiens; UACC-62, Melanoma; NCI one dose; read-out: Cell growth inhibition %
Procedure: as §1, §2

786-0 = test: NCI one-dose SRB anti-proliferative screen; details: Homo sapiens; 786-0, Renal cancer; NCI one dose; read-out: Cell growth inhibition %
Procedure: as §1, §2

NCI-H226 = test: NCI one-dose SRB anti-proliferative screen; details: Homo sapiens; NCI-H226, Non-Small Cell Lung Cancer; NCI one dose; read-out: Cell growth inhibition %
Procedure: as §1, §2

HOP-62 = test: NCI one-dose SRB anti-proliferative screen; details: Homo sapiens; HOP-62, Non-Small Cell Lung Cancer; NCI one dose; read-out: Cell growth inhibition %
Procedure: as §1, §2

HS 578T = test: NCI one-dose SRB anti-proliferative screen; details: Homo sapiens; HS 578T, Breast cancer; NCI one dose; read-out: Cell growth inhibition %
Procedure: as §1, §2

EKVX = test: NCI one-dose SRB anti-proliferative screen; details: Homo sapiens; EKVX, Non-Small Cell Lung Cancer; NCI one dose; read-out: Cell growth inhibition %
Procedure: as §1, §2

MCF-7 = test: Propidium iodide anti-proliferative assay; details: Homo sapiens, MCF7; 48 h incubation; read-out: IC50 ± SEM MCF-7
Procedure: (§3) The propidium iodide (PI) tests^31, 32 were further used for assessment of the IC50 of all synthesized compounds and compared to Doxorubicin as a positive control against four cancer cell lines; pancreatic cancer cell line (Panc-1), epithelial line cancer cell (A-549), breast cancer cell line (MCF-7), and colon cancer cell line (HT-29).
(§4) Using the propidium iodide fluorescence assay with doxorubicin as the reference drug, IC50 of the 24 compounds 7a-x, was carried out according to a previously reported procedure^31, 32 against a panel of four human cancer cell lines; epithelial cancer cell line (A-549), breast cancer cell line (MCF-7), colon cancer cell line (HT-29) and pancreas cancer cell line (Panc-1). Compounds 7a-x were incubated with cancer cells for 2 days at different concentrations. See Appendix A.
(§5) To explore the antiproliferative potential of compounds propidium iodide fluorescence assay was performed using different cell lines (melanoma cancer cell line LOX-IMVI, pancreatic cancer cell line (Panc-1), epithelial line cancer cell (A-549), breast cancer cell line (MCF-7), and colon cancer cell line (HT-29). To calculate the total nuclear DNA, a fluorescent dye (propidium iodide, PI) is used which can attach to the DNA,^9,^10 thus offering a quick and precise technique. PI cannot pass through the cell membrane and its signal intensity can be considered as directly proportional to the quantity of cellular DNA. Cells whose cell membranes are damaged or have changed permeability are counted as dead ones. The assay was performed by seeding the cells of different cancer cell lines at a density of 3000-7500 cells/well (in 200µl medium) in culture plates followed by incubation for 24h at 37 °C in humidified 5% CO2/95% air atmospheric conditions. The medium was removed; the compounds were added to the plates at 10 µM concentrations (in 0.1% DMSO) in triplicates, followed by incubation for 48 h. DMSO (0.1%) was used as control. After incubation, medium was removed followed by the addition of PI (25 µl, 50µg/mL in water/medium) to each well of the plates. At -80 °C, the plates were allowed to freeze for 24 h, followed by thawing at 25 °C. A fluorometer (Polar-Star BMG Tech) was used to record the readings at excitation and emission wavelengths of 530 and 620 nm for each well. The percentage cytotoxicity of compounds was calculated using the following formula:
(§6) Where ATC= Absorbance of treated cells and AC= Absorbance of control. […]

Panc-1 = test: Propidium iodide anti-proliferative assay; details: Homo sapiens, 48 h incubation, read-out: IC50 ± SEM Panc-1
Procedure: as §3, §4, §5, §6

A-549 = test: Propidium iodide anti-proliferative assay; details: Homo sapiens, A549; 48 h incubation; read-out: IC50 ± SEM A-549
Procedure: as §3, §4, §5, §6

HT-29 = test: Propidium iodide anti-proliferative assay; details: Homo sapiens, 48 h incubation, read-out: IC50 ± SEM HT-29
Procedure: as §3, §4, §5, §6

Work on `O=C(CSc1nnc(-c2ccc3[nH]c(-c4ccccc4)nc3c2)o1)Nc1ccc(C(=O)/C=C/c2ccccc2)cc1` [Compound 7a, 2-{5-[2-Phenyl-1 H-benzo[d]imidazol-5-yl]-1,3,4-oxadiazol-2-ylthio}-N-{4-[(E)-3-phenylacryloyl]phenyl}acetamide] yielded an inhibition at 10 µM (SR) of 0%, an inhibition at 10 µM (SN12C) of 2.04% and an inhibition at 10 µM (A498) of 4.13%. The inhibition at 10 µM (U251) was 1.83%, the inhibition at 10 µM (RPMI-8226) was 5.75% and the inhibition at 10 µM (OVCAR-3) was 0%. The inhibition at 10 µM (ACHN) was 0%, the inhibition at 10 µM (CAKI-1) was 0% and the inhibition at 10 µM (MDA-MB-435) was 0%. The inhibition at 10 µM (SK-MEL-2) was 0%, the inhibition at 10 µM (MDA-MB-468) was 0% and the inhibition at 10 µM (UACC-62) was 2.91%. The inhibition at 10 µM (786-0) was 0%, the inhibition at 10 µM (NCI-H226) was 0% and the inhibition at 10 µM (HOP-62) was 0%. For the same compound, the inhibition at 10 µM (HS 578T) was 0%, the inhibition at 10 µM (EKVX) was 0% and the IC50 (MCF-7) was 9.2 ± 1.1 µM. The IC50 (Panc-1) was 10.4 ± 1.3 µM, the IC50 (A-549) was 9.9 ± 1.1 µM and the IC50 (HT-29) was 11.2 ± 1.4 µM.

With `O=C(CSc1nnc(-c2ccc3[nH]c(-c4ccccc4)nc3c2)o1)Nc1ccc(C(=O)/C=C/c2ccc(Cl)cc2)cc1` [Compound 7b, 2-{5-[2-Phenyl-1 H-benzo[d]imidazol-5-yl]-1,3,4-oxadiazol-2-ylthio}-N-{4-[(E)-3-(4-chlorophenyl)acryloyl]phenyl}acetamide] the inhibition at 10 µM (SR) was 3.59%, the inhibition at 10 µM (SN12C) was 9.8% and the inhibition at 10 µM (A498) was 6.84%. The inhibition at 10 µM (U251) was 7.14%, the inhibition at 10 µM (RPMI-8226) was 12.2% and the inhibition at 10 µM (OVCAR-3) was 0%. For the same compound, the inhibition at 10 µM (ACHN) was 0%, the inhibition at 10 µM (CAKI-1) was 1.52% and the inhibition at 10 µM (MDA-MB-435) was 0%. For the same compound, the inhibition at 10 µM (SK-MEL-2) was 0%, the inhibition at 10 µM (MDA-MB-468) was 0% and the inhibition at 10 µM (UACC-62) was 11.6%. For the same compound, the inhibition at 10 µM (786-0) was 2.96%, the inhibition at 10 µM (NCI-H226) was 3.63% and the inhibition at 10 µM (HOP-62) was 0%. The inhibition at 10 µM (HS 578T) was 0%, the inhibition at 10 µM (EKVX) was 0% and the IC50 (MCF-7) was 7.9 ± 0.8 µM. For the same compound, the IC50 (Panc-1) was 8.4 ± 1 µM, the IC50 (A-549) was 8.2 ± 0.9 µM and the IC50 (HT-29) was 9.1 ± 1.1 µM.

`COc1ccc(/C=C/C(=O)c2ccc(NC(=O)CSc3nnc(-c4ccc5[nH]c(-c6ccccc6)nc5c4)o3)cc2)cc1` [Compound 7c, 2-{5-[2-Phenyl-1 H-benzo[d]imidazol-5-yl]-1,3,4-oxadiazol-2-ylthio}-N-{4-[(E)-3-(4-methoxyphenyl)acryloyl]phenyl}acetamide] gave an inhibition at 10 µM (SR) of 12.7%, an inhibition at 10 µM (SN12C) of 3.32% and an inhibition at 10 µM (A498) of 22.6%. For the same compound, the inhibition at 10 µM (U251) was 17.2%, the inhibition at 10 µM (RPMI-8226) was 50.9% and the inhibition at 10 µM (OVCAR-3) was 0%. For the same compound, the inhibition at 10 µM (ACHN) was 2.58%, the inhibition at 10 µM (CAKI-1) was 0% and the inhibition at 10 µM (MDA-MB-435) was 0%. The inhibition at 10 µM (SK-MEL-2) was 2.65%, the inhibition at 10 µM (MDA-MB-468) was 0% and the inhibition at 10 µM (UACC-62) was 9.5%. The inhibition at 10 µM (786-0) was 22.6%, the inhibition at 10 µM (NCI-H226) was 2.2% and the inhibition at 10 µM (HOP-62) was 0%. It also gave an inhibition at 10 µM (HS 578T) of 0%, an inhibition at 10 µM (EKVX) of 0% and an IC50 (MCF-7) of 4.15 ± 0.5 µM. For the same compound, the IC50 (Panc-1) was 5.2 ± 0.4 µM, the IC50 (A-549) was 4.7 ± 0.5 µM and the IC50 (HT-29) was 5.5 ± 0.5 µM.

For `COc1ccc(/C=C/C(=O)c2ccc(NC(=O)CSc3nnc(-c4ccc5[nH]c(-c6ccccc6)nc5c4)o3)cc2)cc1OC` [Compound 7d, 2-{5-[2-Phenyl-1 H-benzo[d]imidazol-5-yl]-1,3,4-oxadiazol-2-ylthio}-N-{4-[(E)-3-(3,4-dimethoxyphenyl)acryloyl]phenyl}acetamide], the inhibition at 10 µM (SR) was 4.34%, the inhibition at 10 µM (SN12C) was 0% and the inhibition at 10 µM (A498) was 14.3%. The inhibition at 10 µM (U251) was 5.02%, the inhibition at 10 µM (RPMI-8226) was 14.7% and the inhibition at 10 µM (OVCAR-3) was 2.49%. It also gave an inhibition at 10 µM (ACHN) of 0%, an inhibition at 10 µM (CAKI-1) of 0% and an inhibition at 10 µM (MDA-MB-435) of 0%. For the same compound, the inhibition at 10 µM (SK-MEL-2) was 0%, the inhibition at 10 µM (MDA-MB-468) was 0% and the inhibition at 10 µM (UACC-62) was 5.31%. The inhibition at 10 µM (786-0) was 9.58%, the inhibition at 10 µM (NCI-H226) was 0% and the inhibition at 10 µM (HOP-62) was 0%. It also gave an inhibition at 10 µM (HS 578T) of 0%, an inhibition at 10 µM (EKVX) of 0% and an IC50 (MCF-7) of 8.9 ± 1.1 µM. The IC50 (Panc-1) was 10.3 ± 1.3 µM, the IC50 (A-549) was 9.7 ± 1.1 µM and the IC50 (HT-29) was 11.1 ± 1.4 µM.
